Reference: publication PMC4789767, “Application of linker technique to trap transiently interacting protein complexes for structural studies” (Journal of Biological Methods, 2016)

Columns and labels:
CaM = experiment: ITC: binding of MBR (IQ motif) peptides to CaM; details: VP-ITC, 25°C, 10 µM CaM in cell, 150 µM IQ peptide in syringe, Buffer A: 20 mM imidazole pH 8.0, 100 mM NaCl, 2 mM EGTA, in words, Fig. 3B vs 3A
Procedure: Different lengths of Nm and Ng IQ motif peptides were commercially synthesized and obtained from GL BiochemLtd (Shanghai, China). Stock solutions of 1 mM of Nm/Ng IQ peptides were prepared by dissolving the appropriate amount of peptide in 20 mM imidazole pH 8.0, 100 mM NaCl and 2 mM EGTA (Buffer A). After mixing, the peptide stock solutions were stored at 4°C to ensure complete peptide solubility. The choice of buffer is based on obtaining maximum solubility of the peptides. NOTE: Synthetically derived peptides should be verified for solubility when dissolved in a buffer of interest. Sometimes preparing high concentrations of peptide stock solution may result in precipitation. Lower concentrations of stock solutions can be prepared to avoid this problem.
• 1. ITC assay: Identification of MBR (minimum binding region) from Nm and Ng. • 1.1. Wildtype (WT) CaM, Nm and Ng are purified, as described previously. • 1.2. Prepare 10 µM of full length Nm/Ng and 150 µM of CaM in Buffer A (Recipes). The Schematic representation of the ITC experimental setup is depicted in Figure 2A. • 1.3. Degas all solutions for 10–20 min using a vacuum pump and centrifuge in order to avoid bubble formation in the sample cell during the experiment. • 1.4. […]

C-lobe of CaM = details: previous findings; ref [34]-[36]; cited from earlier work
Excerpt: The Gly-linker strategy has been previously used to stabilize various protein complexes for structural studies. We have adopted this procedure to determine the crystal structure of CaM in complex with two of its intrinsically unstructured binding partners, Nm and Ng, and further validated the findings in vitro and in vivo [19]. We identified the MBR of Nm and Ng that interacted with CaM using ITC experiments using various peptide lengths of Nm/Ng. […] We employed known s ...

## Minimum Binding Region (MBR) peptide of Nm: Optimized minimum binding region peptide (IQ motif) of Neuromodulin; commercially synthesized
CaM
  binding with CaM compared with full length Nm: mimics full length Nm in terms of binding with CaM

## Ng: Full-length Neurogranin (accession no NP_071312), intrinsically disordered neuron-specific substrate protein
C-lobe of CaM
  interaction site on CaM: interacted with the C-lobe of CaM

## Nm: Full-length Neuromodulin (accession no NP_032109), intrinsically disordered neuron-specific substrate protein
C-lobe of CaM
  interaction site on CaM: interacted with the C-lobe of CaM
